# Results taken from BindingDB's records for doi:10.3109/14756360903389864 (Quaid-I-Azam University, 2010).
# Target: Urease (Canavalia ensiformis, UniProt P07374)
# Experiment: Urease Inhibition Assay
# Sequence of Urease (P07374 whole entry): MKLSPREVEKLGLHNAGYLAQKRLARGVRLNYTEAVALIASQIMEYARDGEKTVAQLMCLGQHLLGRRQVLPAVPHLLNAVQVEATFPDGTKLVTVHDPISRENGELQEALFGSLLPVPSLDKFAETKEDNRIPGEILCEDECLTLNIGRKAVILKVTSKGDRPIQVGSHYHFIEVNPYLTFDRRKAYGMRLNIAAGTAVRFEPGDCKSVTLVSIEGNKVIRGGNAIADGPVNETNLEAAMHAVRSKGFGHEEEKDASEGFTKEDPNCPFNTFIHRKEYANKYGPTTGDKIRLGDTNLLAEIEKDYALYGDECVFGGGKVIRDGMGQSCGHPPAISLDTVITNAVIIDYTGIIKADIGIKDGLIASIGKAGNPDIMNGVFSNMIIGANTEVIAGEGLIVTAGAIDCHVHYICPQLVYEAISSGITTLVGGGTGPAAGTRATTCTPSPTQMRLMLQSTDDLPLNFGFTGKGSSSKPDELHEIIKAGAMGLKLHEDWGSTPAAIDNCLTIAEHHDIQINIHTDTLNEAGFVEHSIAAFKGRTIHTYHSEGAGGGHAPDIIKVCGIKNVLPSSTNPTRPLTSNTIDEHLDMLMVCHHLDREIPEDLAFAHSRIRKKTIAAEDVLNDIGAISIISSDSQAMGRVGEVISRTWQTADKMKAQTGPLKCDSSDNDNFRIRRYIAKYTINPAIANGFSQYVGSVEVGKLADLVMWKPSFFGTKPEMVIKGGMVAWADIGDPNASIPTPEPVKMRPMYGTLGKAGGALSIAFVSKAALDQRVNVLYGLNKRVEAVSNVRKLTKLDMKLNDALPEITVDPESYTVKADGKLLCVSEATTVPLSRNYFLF
row,Structure (SMILES),IC50
1,"O=[N+]([O-])c1ccc(Nc2nnc(C(O)c3ccccc3)o2)cc1 (stereo unspecified) [5-(Hydroxybenzyl)-2-(4-nitrophenyl)amino-1,3,4-oxadiazole (4e)]",80.3 µM
2,"O=[N+]([O-])c1ccc(-n2c(C(O)c3ccccc3)n[nH]c2=S)cc1 (stereo unspecified) [5-(Hydroxybenzyl)-4-(4-nitrophenyl)-2H-1,2,4-triazole-3-thione (5e)]",132 µM
3,"Cc1ccc(Nc2nnc(C(O)c3ccccc3)o2)cc1 (stereo unspecified) [5-(Hydroxybenzyl)-2-(4-methylphenyl)amino-1,3,4-oxadiazole (4d)]",16.1 µM
4,"OC(c1ccccc1)c1n[nH]c(=S)n1-c1ccc(Cl)cc1 (stereo unspecified) [5-(Hydroxybenzyl)-4-(4-chlorophenyl)-2H-1,2,4-triazole-3-thione (5b)]",18.9 µM
5,"Cc1ccc(-n2c(C(O)c3ccccc3)n[nH]c2=S)cc1 (stereo unspecified) [5-(Hydroxybenzyl)-4-(4-methylphenyl)-2H-1,2,4-triazole-3-thione (5d)]",16.7 µM
6,"OC(c1ccccc1)c1n[nH]c(=S)n1-c1ccc(Br)cc1 (stereo unspecified) [5-(Hydroxybenzyl)-4-(4-bromophenyl)-2H-1,2,4-triazole-3-thione (5a)]",32 µM
